# Experimental data published in article PMC5267425, “Identification of small molecule modulators of HIV-1 Tat and Rev protein accumulation” (Retrovirology, 2017).
# pIC50: −log10 of the molar value.
# Legend:
# Format in all cases: cell-based
# [1] = tested on: HIV-1 gene expression in HeLa rtTA HIV∆Mls cells; assay: HIV-1 gene expression / virion production by p24 antigen ELISA, Dox-inducible provirus; conditions: for reduction of HIV-1 viral production relative to DMSO (+Dox): 791 30 µM, 833 2 µM, 892 15 µM, 24 h (Fig. 1); for pIC50: Human immunodeficiency virus 1, HeLa
# Excerpt: Effects of compound treatment on HIV-1 gene expression were initially assessed in the context of HeLa rtTA HIV∆Mls cells stably transduced with an inducible Tet-On HIV-1 system (as previously described). The provirus was modified by either deletion in the reverse transcriptase and integrase region of the pol gene by an MlsI restriction digest (HeLa rtTA HIV∆Mls cell line) or GFP fusion to Gag, deleting the PR and RT-coding regions (HeLa rtTA HIVGagGFP cell line). […] All cell lines were maintained in Iscove’s modified Delbecco’s medium (IMDM; Wisent) supplemented with 10% (vol/vol) fetal bovine serum (FBS, Wisent), 1% penicillin/streptomycin (P/S, Wisent) and 0.2% Amphotericin B (Wisent). Indicator cell line CEM-GXR was obtained from Dr. Mark Brockman (Simon Fraser University). The RTI-resistant virus (E00443) was obtained from Dr. Zabrina Brumme (Simon Fraser University). The HIV-1 clade A (97USSN54 (N54)), HIV-1 clade B (IIIB), integrase inhibitor resistant virus (11845), protease inhibitor resistant virus (2948) were obtained through the NIH AIDS Research and Reference reagent program, Division of AIDS, NIAID, NIH).
# The compounds used in the treatment assay were obtained from ChemBridge. All compounds were solubilized to 10 mM or 1 mM stock concentrations in dimethyl sulfoxide (DMSO) and stored at −20 °C for subsequent experiments. Cells were incubated for 3–5 h in the presence of the compounds prior to induction with doxycycline (Dox) at a final concentration of 2 μg/mL. 24 h post compound treatment, culture medium was harvested, adjusted to 1% Triton X-100, and incubated at 37 °C for 1 h for p24 antigen ELISA. Cells were harvested in 2 mM EDTA, 1xPBS. RNA was isolated using Aurum Total RNA extraction kits (Bio-Rad), while total protein was extracted with RIPA buffer (1% NP-40, 0.1% SDS, 0.5% sodium deoxycholate, 150 mM NaCl, 50 mM Tris–HCl).
# (§1) ELISA for p24 Gag antigen was performed on cell supernatants using kits purchased from Frederick National Laboratory for Cancer Research (Leidos) or XpressBio extended range kit and performed according to manufacturer’s instructions. Protein concentration in cell lysates was quantified by Bradford assay and equal amounts of protein run on 7, 10, 12, or 14% SDS-PAGE, depending on the protein of interest. Following transfer to PVDF (BioRad or Perkin-Elmer), blots were blocked in either 5% Milk-PBS-T (5% Milk, 0.05% Tween-20, 1× PBS) or 3% BSA-PBS-T (3% BSA, 0.05% Tween-20, 1× PBS) prior to incubating with primary antibody (all diluted in 3% BSA-PBS-T). Primary antibodies used were: purified mouse anti-p24 supernatant from anti-HIV-1 Gag hybridoma 183, mouse anti-gp120 hybridoma 902 (NIH AIDS Reagent Program), mouse monoclonal antibody to HIV-1 Rev (Abcam), rabbit polyclonal antibody to HIV-1 Tat (Abcam), mouse monoclonal antibody to p53 (Santa Cruz), rabbit purified IgG for Nap1 (provided by L. Frappier), rabbit polyclonal antibody to GAPDH (Sigma-Aldrich), or mouse monoclonal antibody to α-Tubulin (Sigma-Aldrich). Following incubation with appropriate secondary antibody, blots were visualized by ECL, ECL Plus (Perkin-Elmer), or Clarity Western ECL substrate (BioRad). Quantification of the relative intensity of the detected bands was done using ImageLab software and normalized to corresponding bands of the loading control (GAPDH or α-Tubulin).
# p53 = assay: Western blot of p53; conditions: 791 30 µM, 833 2 µM, 892 15 µM
# Method: as §1
# Nap1 = assay: Western blot of Nap1; conditions: 791 30 µM, 833 2 µM, 892 15 µM, 24 h
# Method: as §1
Structure (SMILES),reduction of HIV-1 viral production relative to DMSO (+Dox) [1],pIC50 [1],p53 expression (p53),reduction of Nap1 expression (Nap1),reduction in Gag expression ([1]; 1.5 µM)
"COc1ccc(C=NNC(=O)c2ccccc2O)cc1O [Compound 892, 2-hydroxy-N′-(3-hydroxy-4-methoxybenzylidene)benzohydrazide]",80–90%,5.74,no effect,no effect,–
"O=C(NC(=S)NNC(=O)c1ccccc1O)c1ccc(-c2ccccc2)cc1 [Compound 833, N-([2-(2-hydroxybenzoyl)hydrazino]carbonothioyl}-4-biphenylcarboxamide]",80–90%,6.22,no effect,more variable,90%
"Cc1cc(NCc2cccnc2)n2ncc(-c3ccc(Cl)cc3)c2n1 [Compound 791, 3-(4-chlorophenyl)-5-methyl-N-(3-pyridinylmethyl)pyrazolo[1,5-a]pyrimidin-7-amine]",80–90%,5.09,approximately twofold,approximately 50%,–
